Source: ChEMBL document CHEMBL3774310, “Discovery of antitumor anthra[2,3-b]furan-3-carboxamides: Optimization of synthesis and evaluation of antitumor properties” (Eur J Med Chem, 2016)
Active and inactive are the calls of the source. The calls are words filed in the database; no cut-off is given here.

Assays:
cells = conditions: Homo sapiens, HCT-116, 72 h
Description: Antiproliferative activity against human HCT116 cells after 72 hrs by MTT assay

L1210 = test: cells; conditions: Mus musculus, L1210, 48 h
Description: Antiproliferative activity against mouse L1210 cells after 48 hrs by MTT assay

HeLa = test: Antiproliferative activity against human HeLa cells after 72 hrs by MTT assay; type: functional, cell-based
[1] = Antiproliferative activity against human K562/4 cells after 72 hrs by MTT assay; conditions: K562/4, 72 h
K562 [2] = test: cells; conditions: Homo sapiens, K562, 72 h
Description: Antiproliferative activity against human K562 cells after 72 hrs by MTT assay

[3] = biological target: T1, DNA topoisomerase 1 (Homo sapiens) (UniProt P11387); test: Poisoning activity at topoisomerase 1 (unknown origin) using 3'-[32P]dGTP labelled 117bp oligonucleotide assessed as induction of DNA cleavage at 1 uM incubated for 20 mins by SDS-PAGE analysis
T1 sequence (whole entry): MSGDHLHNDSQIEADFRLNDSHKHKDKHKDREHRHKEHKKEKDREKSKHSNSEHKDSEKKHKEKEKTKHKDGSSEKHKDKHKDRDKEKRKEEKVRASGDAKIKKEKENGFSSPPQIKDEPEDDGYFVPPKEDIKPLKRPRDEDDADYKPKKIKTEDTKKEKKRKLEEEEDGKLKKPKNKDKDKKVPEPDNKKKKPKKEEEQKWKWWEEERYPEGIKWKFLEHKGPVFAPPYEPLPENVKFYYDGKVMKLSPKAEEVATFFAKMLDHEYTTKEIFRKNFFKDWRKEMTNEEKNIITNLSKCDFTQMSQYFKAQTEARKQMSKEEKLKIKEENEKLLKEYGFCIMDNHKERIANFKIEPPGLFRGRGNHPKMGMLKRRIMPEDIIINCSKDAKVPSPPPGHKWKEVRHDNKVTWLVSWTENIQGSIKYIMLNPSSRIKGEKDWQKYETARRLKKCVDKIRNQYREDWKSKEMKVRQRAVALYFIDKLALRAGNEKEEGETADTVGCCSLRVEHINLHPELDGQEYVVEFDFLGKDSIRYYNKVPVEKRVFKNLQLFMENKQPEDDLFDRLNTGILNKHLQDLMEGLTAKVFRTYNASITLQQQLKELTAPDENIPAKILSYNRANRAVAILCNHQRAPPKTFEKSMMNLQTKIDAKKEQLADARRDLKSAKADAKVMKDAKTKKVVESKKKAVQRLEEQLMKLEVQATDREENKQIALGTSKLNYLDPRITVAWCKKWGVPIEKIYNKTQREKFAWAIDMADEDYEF

Calf thymus DNA = test: Binding affinity to calf thymus DNA at 5 uM by fluorescence assay; type: nucleic-acid assay; conditions: Bos taurus
K562 [4] = test: Binding affinity to P-gp in human K562 cells assessed as drug accumulation at 1 uM incubated for 1 to 24 hrs by flow cytometry; type: cell-based
K562/4 = test: Binding affinity to P-gp in human K562/4 cells assessed as drug accumulation at 1 uM incubated for 1 to 24 hrs by flow cytometry; type: cell-based
[5] = biological target: T1, DNA topoisomerase 1 (Homo sapiens); test: Poisoning activity at topoisomerase 1 (unknown origin) using 3'-[32P]dGTP labelled 117bp oligonucleotide assessed as induction of DNA cleavage incubated for 20 mins by SDS-PAGE analysis

For `Cc1oc2c(O)c3c(c(O)c2c1C(=O)N1CCCC(N)C1)C(=O)c1ccccc1C3=O` (centres undefined), the IC50 (cells) was 1500 nM, the IC50 (L1210) was 5.6 µM and the IC50 (HeLa) was 1.4 µM. It also gave an IC50 [1] of 700 nM and an IC50 (K562 [2]) of 850 nM.

In the case of `COc1cc2c3c(n(CCCNCCO)c(=O)c2cc1OC)-c1cc2c(cc1C3=O)OCO2`, the Activity [3] is reported as “Active”.

In the case of `Cc1oc2c(O)c3c(c(O)c2c1C(=O)N1CCNCC1C)C(=O)c1ccccc1C3=O` (centres undefined), the IC50 (cells) is reported as 1600 nM, the IC50 (L1210) is reported as 3.7 µM and the IC50 (HeLa) is reported as 0.7 µM. The IC50 [1] was 4800 nM and the IC50 (K562 [2]) was 1100 nM.

In the case of `CC[C@@]1(O)C(=O)OCc2c1cc1n(c2=O)Cc2cc3ccccc3nc2-1`, the Activity [3] is reported as “Active”.

Compound `Cc1oc2c(O)c3c(c(O)c2c1C(=O)NC1CCCNC1)C(=O)c1ccccc1C3=O` (centres undefined) has an IC50 (cells) of 1600 nM, an IC50 (L1210) of 3 µM and an IC50 (HeLa) of 3.4 µM. For the same compound, the IC50 [1] was 350 nM and the IC50 (K562 [2]) was 600 nM.

In the case of `COc1cccc2c1C(=O)c1c(O)c3c(c(O)c1C2=O)C[C@@](O)(C(=O)CO)C[C@@H]3O[C@H]1C[C@H](N)[C@H](O)[C@H](C)O1`, the Activity (Calf thymus DNA) is reported as “Active”, the Activity (K562 [4]) is reported as “inactive” and the Activity (K562/4) is reported as “Active”.

With `O=C1c2ccccc2C(=O)c2c1c(O)c1[nH]cc(CN[C@@H]3CCNC3)c1c2O` the IC50 (cells) was 1600 nM, the IC50 (L1210) was 0.07 µM and the Activity [5] was “Active”. For the same compound, the IC50 [1] was 400 nM.

For `Cc1oc2c(O)c3c(c(O)c2c1C(=O)NC1CN2CCC1CC2)C(=O)c1ccccc1C3=O` (centres undefined), the IC50 (cells) was 900 nM, the IC50 (L1210) was 2.4 µM and the IC50 (HeLa) was 12 µM. It also gave an IC50 [1] of 650 nM and an IC50 (K562 [2]) of 600 nM.

Work on `Cc1oc2c(O)c3c(c(O)c2c1C(=O)NC1CCNCC1)C(=O)c1ccccc1C3=O` yielded an IC50 (cells) of 1200 nM, an IC50 (L1210) of 5.1 µM and an IC50 (HeLa) of 11 µM. For the same compound, the IC50 [1] was 4000 nM and the IC50 (K562 [2]) was 2700 nM.

With `Cc1oc2c(O)c3c(c(O)c2c1C(=O)N1CCNCC1)C(=O)c1ccccc1C3=O` the IC50 (cells) was 2300 nM, the IC50 (L1210) was 4.1 µM and the IC50 (HeLa) was 3.1 µM. For the same compound, the IC50 [1] was 2800 nM and the IC50 (K562 [2]) was 1300 nM.

`Cc1oc2c(O)c3c(c(O)c2c1C(=O)N1CCC(N)CC1)C(=O)c1ccccc1C3=O` showed an IC50 (cells) of 2000 nM, an IC50 (L1210) of 13 µM and an IC50 (HeLa) of 9.7 µM. The IC50 [1] was 400 nM and the IC50 (K562 [2]) was 2100 nM.

`Cc1oc2c(O)c3c(c(O)c2c1C(=O)N1CCNC(C)C1)C(=O)c1ccccc1C3=O` (centres undefined) showed an IC50 (cells) of 1300 nM, an IC50 (L1210) of 3.7 µM and an IC50 (HeLa) of 0.9 µM. It also gave an IC50 [1] of 3000 nM and an IC50 (K562 [2]) of 900 nM.

`Cc1oc2c(O)c3c(c(O)c2c1C(=O)N[C@@H]1CCNC1)C(=O)c1ccccc1C3=O` gave an IC50 (cells) of 300 nM, an IC50 (L1210) of 5.4 µM and an IC50 (HeLa) of 9.5 µM. For the same compound, the IC50 [1] was 750 nM and the IC50 (K562 [2]) was 700 nM.

With `Cc1oc2c(O)c3c(c(O)c2c1C(=O)N1CCN(C)CC1)C(=O)c1ccccc1C3=O` the IC50 (cells) was 11500 nM, the IC50 (L1210) was 82 µM and the IC50 (HeLa) was 104 µM. It also gave an IC50 [1] of 5900 nM and an IC50 (K562 [2]) of 1600 nM.

Work on `Cc1oc2c(O)c3c(c(O)c2c1C(=O)N[C@H]1CCNC1)C(=O)c1ccccc1C3=O` yielded an IC50 (cells) of 250 nM, an IC50 (L1210) of 6.5 µM and an IC50 (HeLa) of 64 µM. The IC50 [1] was 800 nM and the IC50 (K562 [2]) was 750 nM.
